This assay deals with L-NAME-induced hypertensive rats. Kind of assay: Therapeutic effect on L-NAME-induced hypertensive rats (Effect Verification 1), tail artery pressure. It counts as in vivo, SD rats. The settings on record: for antihypertensive effect (overall finding): SBP and DBP, three weeks of administration; for comparison of SBP with that in the group M: after the end of the administration (third week). On the procedure: The tail artery pressure, including systolic blood pressure (SBP) and diastolic blood pressure (DBP), was measured in rats in the resting state at the same time using an ALC-NIBP noninvasive blood pressure measuring instrument. One hundred and fifty-two 6-week-old male SD rats were taken and subjected to adaptive feeding for one week at room temperature of 18-26° C. with the relative humidity of 40%-70% and illumination by artificial lighting from 9:00 to 21:00 every day. After one week, blood pressure in all of them was measured, the results were charted using Excel 2010, and the experimental data were analyzed using SPSS 20.0, where P < 0.05 indicated statistical significance and the measurement data were expressed as x̅ ± s. […] According to the commonly used grading criteria for hypertension, SBP 140 mmHg is the critical value of hypertension, and every 20 mmHg is one grade. Every 10 mmHg of DBP is one grade. Therefore, SBP > 140 mmHg is set as mild hypertension and SBP > 160 mmHg is set as moderate hypertension; optionally, DBP increased by more than 10 mmHg is mild hypertension and DBP increased by more than 20 mmHg is moderate hypertension.
Rats with the blood pressure in the normal range measured in the step 1 above and the weight of 200 ± 20 g were randomly taken and grouped into 7 groups: a control group (K) containing 8 rats, a model control group (M), a ligustrazine administration group (TMP, 60 mg/kg), a cannabidiol administration group (CBD, 60 mg/kg), and combined administration groups of TMP and CBD (divided into three groups in different ratios of 2:1 (XA), 1:1 (XB) and 1:2 (XC), TMP = 60 mg/kg, and CBD was 30 mg/kg, 60 mg/kg and 120 mg/kg, respectively). 10 rats were contained in each remaining group. Except for group K, 12 mg/kg L-NAME was administered intragastrically to the rest at 9:00 every day to manufacture a hypertension model, and distilled water was administered in an equal amount to K group. By the fourth week, blood pressure was measured in each group, and after individuals with SBP < 140 mmHg were excluded from the model, each group was administered for three weeks, and drug vehicles were administered in an equal amount to groups K and M. Blood pressure was measured once a week during the administration period. (The animal model was fasted for two hours before the administration, and the medicament was bathed to room temperature. TMP solution at 1 mL/100 g was firstly administered intragastrically to the combined administration groups of TMP and CBD, and after 1 h interval, CBD solution at the corresponding half volume was then administered intragastrically.)
One-way ANOVA analysis (Duncan) was used for pairwise comparisons among groups, and paired-sample t-test was used for before-and-after comparisons within groups. The change trend of SBP of rats in each group is shown in FIG. 2 and the change trend of DBP of rats in each group is shown in FIG. 3, and the abscissa “0” represents the fourth week of molding, i.e., the beginning of the administration period.

The mark [1] stands for this setting: one week of intragastric administration.
Where [2] appears, read: three weeks of intragastric administration.
[3] abbreviates: two weeks of intragastric administration.

The values that follow come from patent publication US20230218542A1, “MEDICAMENT FOR TREATING HYPERTENSION” (priority 2022, published 2023).

Turning to ligustrazine phosphate [TMP], the “antihypertensive effect (overall finding)” value is reported as “no significant antihypertensive effect” and the “comparison of SBP with that in the group M” value is given as “no significant difference”. The “Effect = (SBP in model group - SBP in administration group)/(SBP in model group - SBP in control group)” value (“Effect =” below) under setting [1] came out at 0.0716. In addition, the “Effect =” value under setting [2] is listed as 0.1722. The “Effect =” value under setting [3] is 0.0780.
Turning to `C=C(C)[C@@H]1CCC(C)=C[C@H]1c1c(O)cc(CCCCC)cc1O` [CBD, cannabidiol], the “antihypertensive effect (overall finding)” value is reported as “significant antihypertensive effect” and the “comparison of SBP with that in the group M” value is reported as “significant difference”. The “decrease of SBP” value (after the end of the administration) is “more than 10 mmHg”. Besides, the “Effect =” value under setting [1] is given as 0.3222. Moreover, the “Effect =” value under setting [2] is listed as 0.3418. In addition, the “Effect =” value under setting [3] is listed as 0.3628.
